For 28 compounds, EC50 results are on record in patent US20240228504A1, “SUBSTITUTED TRICYCLIC AMIDES, ANALOGUES THEREOF, AND METHODS USING SAME” (Arbutus Biopharma Corporation, priority 2020, published 2024).

The term EC50 denotes the concentration that produces a half-maximal response.

This experiment relates to HBV rcDNA in HepDE19 cells. As to the kind of experiment: HepDE19 assay with bDNA quantitation of HBV rcDNA. It is filed as cell-based, hepatitis B virus. Particulars: Hepatitis B virus, HepDE19, HepDE19 assay, inhibition of rcDNA formation, bDNA quantitation; read-out: DE-19bDNA EC50.
Take `CN(C(=O)C1Cc2ccccc21)[C@@H]1COCc2[nH]c(=O)c3cc(F)c(F)cc3c21` (stereo partly drawn) [Compound 269, N-((S)-8,9-Difluoro-6-oxo-1,4,5,6-tetrahydro-2H-pyrano[3,4-c]isoquinolin-1-yl)-N-methylbicyclo[4.2.0]octa-1(6),2,4-triene-7-carboxamide]: the EC50 turned out to be 18.6 µM.

As to `CN(C(=O)C1(O)Cc2ccccc2C1)[C@@H]1COCc2[nH]c(=O)c3cc(F)c(F)cc3c21` [Compound 275, (S)-N-(8,9-Difluoro-6-oxo-1,4,5,6-tetrahydro-2H-pyrano[3,4-c]isoquinolin-1-yl)-2-hydroxy-N-methyl-2,3-dihydro-1H-indene-2-carboxamide], the EC50 worked out at 3.84 µM. The figure for `CN(C(=O)C1(O)Cc2cc(F)c(F)cc2C1)[C@@H]1COCc2[nH]c(=O)c3cc(F)c(F)cc3c21` [Compound 276, (S)-N-(8,9-Difluoro-6-oxo-1,4,5,6-tetrahydro-2H-pyrano[3,4-c]isoquinolin-1-yl)-5,6-difluoro-2-hydroxy-N-methyl-2,3-dihydro-1H-indene-2-carboxamide] is 1.95 µM; for `Cc1cc2ccc(C(=O)N(C)[C@@H]3COCc4[nH]c(=O)c5cc(F)c(F)cc5c43)cn2c1` [Compound 277, (S)-N-(8,9-Difluoro-6-oxo-1,4,5,6-tetrahydro-2H-pyrano[3,4-c]isoquinolin-1-yl)-N,2-dimethylindolizine-6-carboxamide] it is 0.42 µM; for `CN(C(=O)c1cc2sccc2[nH]1)[C@@H]1COCc2[nH]c(=O)c3cc(F)c(F)cc3c21` [Compound 278, (S)-N-(8,9-Difluoro-6-oxo-1,4,5,6-tetrahydro-2H-pyrano[3,4-c]isoquinolin-1-yl)-N-methyl-4H-thieno[3,2-b]pyrrole-5-carboxamide] it is 0.02 µM. Regarding `CN(C(=O)C1Cc2ccc(F)cc21)[C@@H]1COCc2[nH]c(=O)c3cc(F)c(F)cc3c21` (stereo partly drawn) [Compound 279, N-((S)-8,9-Difluoro-6-oxo-1,4,5,6-tetrahydro-2H-pyrano[3,4-c]isoquinolin-1-yl)-4-fluoro-N-methylbicyclo[4.2.0]octa-1(6),2,4-triene-7-carboxamide], the concentration for a half-maximal effect (EC50) turned out to be 9.5 µM. The figure for `CN(C(=O)c1cc2cc(F)c(F)cc2[nH]1)[C@@H]1COCc2nc(OCCN)c3cc(F)c(F)cc3c21` [Compound 280, (S)-N-(6-(2-aminoethoxy)-8,9-difluoro-1,4-dihydro-2H-pyrano[3,4-c]isoquinolin-1-yl)-5,6-difluoro-N-methyl-1H-indole-2-carboxamide] is 0.02 µM.

For the compound `CN(C(=O)C1CN(c2ccsc2)C1)[C@@H]1COCc2[nH]c(=O)c3cc(F)c(F)cc3c21` [Compound 282, (S)-N-(8,9-Difluoro-6-oxo-1,4,5,6-tetrahydro-2H-pyrano[3,4-c]isoquinolin-1-yl)-N-methyl-1-(thiophen-3-yl)azetidine-3-carboxamide], the EC50 amounted to 0.29 µM. Consider `CN(C(=O)c1ccc(-c2cccc(F)c2)cc1)[C@@H]1COCc2[nH]c(=O)c3cc(F)c(F)cc3c21` [Compound 283, (S)-N-(8,9-Difluoro-6-oxo-1,4,5,6-tetrahydro-2H-pyrano[3,4-c]isoquinolin-1-yl)-3′-fluoro-N-methyl-[1,1′-biphenyl]-4-carboxamide], for which the EC50 was 4.7 µM. For `CN(C(=O)C1CN(c2cscc2Br)C1)[C@@H]1COCc2[nH]c(=O)c3cc(F)c(F)cc3c21` [Compound 284, (S)-1-(4-Bromothiophen-3-yl)-N-(8,9-difluoro-6-oxo-1,4,5,6-tetrahydro-2H-pyrano[3,4-c]isoquinolin-1-yl)-N-methylazetidine-3-carboxamide], the EC50 stood at 0.05 µM. On to `CN(C(=O)c1ccc(-c2ccccc2F)cc1)[C@@H]1COCc2[nH]c(=O)c3cc(F)c(F)cc3c21` [Compound 285, (S)-N-(8,9-Difluoro-6-oxo-1,4,5,6-tetrahydro-2H-pyrano[3,4-c]isoquinolin-1-yl)-2′-fluoro-N-methyl-[1,1′-biphenyl]-4-carboxamide], for which the EC50 was 19.7 µM.

For `CN(C(=O)c1ccc(-c2cc(F)cc(F)c2)cc1)[C@@H]1COCc2[nH]c(=O)c3cc(F)c(F)cc3c21` [Compound 286, (S)-N-(8,9-Difluoro-6-oxo-1,4,5,6-tetrahydro-2H-pyrano[3,4-c]isoquinolin-1-yl)-3′,5′-difluoro-N-methyl-[1,1′-biphenyl]-4-carboxamide], the EC50 came to 12.9 µM. In the case of `CN(C(=O)c1ccc(-c2cc(F)cc(F)c2)c(F)c1)[C@@H]1COCc2[nH]c(=O)c3cc(F)c(F)cc3c21` [Compound 287, (S)-N-(8,9-Difluoro-6-oxo-1,4,5,6-tetrahydro-2H-pyrano[3,4-c]isoquinolin-1-yl)-2,3′,5′-trifluoro-N-methyl-[1,1′-biphenyl]-4-carboxamide], the EC50 worked out at 12.7 µM. Take `CN(C(=O)c1cccc(-c2ccccc2)c1)[C@@H]1COCc2[nH]c(=O)c3cc(F)c(F)cc3c21` [Compound 288, (S)-N-(8,9-Difluoro-6-oxo-1,4,5,6-tetrahydro-2H-pyrano[3,4-c]isoquinolin-1-yl)-N-methyl-[1,1′-biphenyl]-3-carboxamide]: the concentration giving a half-maximal response (EC50) amounted to 11.3 µM. Consider `CN(C(=O)c1cccc(-c2ccc(F)cc2)c1)[C@@H]1COCc2[nH]c(=O)c3cc(F)c(F)cc3c21` [Compound 289, (S)-N-(8,9-Difluoro-6-oxo-1,4,5,6-tetrahydro-2H-pyrano[3,4-c]isoquinolin-1-yl)-4′-fluoro-N-methyl-[1,1′-biphenyl]-3-carboxamide], for which the EC50 worked out at 6.4 µM. As to `CN(C(=O)c1cccc(-c2cccc(F)c2)c1)[C@@H]1COCc2[nH]c(=O)c3cc(F)c(F)cc3c21` [Compound 290, (S)-N-(8,9-Difluoro-6-oxo-1,4,5,6-tetrahydro-2H-pyrano[3,4-c]isoquinolin-1-yl)-3′-fluoro-N-methyl-[1,1′-biphenyl]-3-carboxamide], the concentration giving a half-maximal response (EC50) worked out at 2.3 µM.

As for `CN(C(=O)c1cc(F)cc(-c2cccc(F)c2)c1)[C@@H]1COCc2[nH]c(=O)c3cc(F)c(F)cc3c21` [Compound 291, (S)-N-(8,9-Difluoro-6-oxo-1,4,5,6-tetrahydro-2H-pyrano[3,4-c]isoquinolin-1-yl)-3′,5-difluoro-N-methyl-[1,1′-biphenyl]-3-carboxamide], the EC50 came to 10.1 µM. On to `CN(C(=O)c1cccc(Oc2ccccc2)c1)[C@@H]1COCc2[nH]c(=O)c3cc(F)c(F)cc3c21` [Compound 292, (S)-N-(8,9-Difluoro-6-oxo-1,4,5,6-tetrahydro-2H-pyrano[3,4-c]isoquinolin-1-yl)-N-methyl-3-phenoxybenzamide], for which the EC50 came to 11.2 µM. In the case of `CN(C(=O)c1cccc(Oc2ccc(F)cc2)c1)[C@@H]1COCc2[nH]c(=O)c3cc(F)c(F)cc3c21` [Compound 293, (S)-N-(8,9-Difluoro-6-oxo-1,4,5,6-tetrahydro-2H-pyrano[3,4-c]isoquinolin-1-yl)-3-(4-fluorophenoxy)-N-methylbenzamide], the EC50 amounted to 7.6 µM. On to `CN(C(=O)c1cc2ccsc2[nH]1)[C@@H]1COCc2[nH]c(=O)c3cc(F)c(F)cc3c21` [Compound 294, (S)-N-(8,9-Difluoro-6-oxo-1,4,5,6-tetrahydro-2H-pyrano[3,4-c]isoquinolin-1-yl)-N-methyl-6H-thieno[2,3-b]pyrrole-5-carboxamide], for which the EC50 worked out at 0.05 µM. Then `CN(C(=O)c1ccc(S(C)(=O)=O)cc1)[C@@H]1COCc2[nH]c(=O)c3cc(F)c(F)cc3c21` [Compound 295, (S)-N-(8,9-Difluoro-6-oxo-1,4,5,6-tetrahydro-2H-pyrano[3,4-c]isoquinolin-1-yl)-N-methyl-4-(methylsulfonyl)benzamide], with 0.35 µM; and `CNS(=O)(=O)c1cccc(C(=O)N(C)[C@@H]2COCc3[nH]c(=O)c4cc(F)c(F)cc4c32)c1` [Compound 296, (S)-N-(8,9-Difluoro-6-oxo-1,4,5,6-tetrahydro-2H-pyrano[3,4-c]isoquinolin-1-yl)-N-methyl-3-(N-methylsulfamoyl)benzamide], with 0.89 µM; and `CN(C(=O)c1cccc(NS(C)(=O)=O)c1)[C@@H]1COCc2[nH]c(=O)c3cc(F)c(F)cc3c21` [Compound 297, (S)-N-(8,9-Difluoro-6-oxo-1,4,5,6-tetrahydro-2H-pyrano[3,4-c]isoquinolin-1-yl)-N-methyl-3-(methylsulfonamido)benzamide], with 21 µM. The figure for `CN(C(=O)c1cccc(S(C)(=O)=O)c1)[C@@H]1COCc2[nH]c(=O)c3cc(F)c(F)cc3c21` [Compound 298, (S)-N-(8,9-Difluoro-6-oxo-1,4,5,6-tetrahydro-2H-pyrano[3,4-c]isoquinolin-1-yl)-N-methyl-3-(methylsulfonyl)benzamide] is 9 µM. Consider `CN(C(=O)c1ccc2cncn2c1)[C@@H]1COCc2[nH]c(=O)c3cc(F)c(F)cc3c21` [Compound 299, (S)-N-(8,9-Difluoro-6-oxo-1,4,5,6-tetrahydro-2H-pyrano[3,4-c]isoquinolin-1-yl)-N-methylimidazo[1,5-a]pyridine-6-carboxamide], for which the EC50 came to 0.36 µM.

Regarding `CC(C)C(=O)OC1OC[C@@H](N(C)C(=O)c2cc3cc(F)c(F)cc3[nH]2)c2c1[nH]c(=O)c1cc(F)c(F)cc21` (stereo partly drawn) [Compound 300, (1S)-1-(5,6-Difluoro-N-methyl-1H-indole-2-carboxamido)-8,9-difluoro-6-oxo-1,4,5,6-tetrahydro-2H-pyrano[3,4-c]isoquinolin-4-yl isobutyrate], the EC50 amounted to 0.01 µM. As to `CN(C(=O)c1cc(F)cc(Oc2ccccc2)c1)[C@@H]1COCc2[nH]c(=O)c3cc(F)c(F)cc3c21` [Compound 303, (S)-N-(8,9-Difluoro-6-oxo-1,4,5,6-tetrahydro-2H-pyrano[3,4-c]isoquinolin-1-yl)-3-fluoro-N-methyl-5-phenoxybenzamide], the EC50 was 6.7 µM. Then `CN(C(=O)c1ccc2nccn2c1)[C@@H]1COCc2[nH]c(=O)c3cc(F)c(F)cc3c21` [Compound 306, (S)-N-(8,9-Difluoro-6-oxo-1,4,5,6-tetrahydro-2H-pyrano[3,4-c]isoquinolin-1-yl)-N-methylimidazo[1,2-a]pyridine-6-carboxamide], with 0.42 µM.
